# Assay results as given in the NIST ThermoML archive (doi:10.1021/je300938w).
# Numbers after ± are expanded uncertainties.
# Test: refractive index (Na D-line) (dimensionless); wn = mass fraction of the nth substance listed
# Conditions: 308.15 K; 101 kPa; Liquid; Standard Abbe refractometry; w1 = 0.15
row,Structure (SMILES),refractive index
1,CC(O)CNCC(C)O (stereo unspecified) [N-(2-hydroxypropyl)-2-hydroxy-1-propanamine] + O,1.35332 ± 0.00032
2,OCCNCCO [diethanolamine] + O,1.35288 ± 0.00031

# Same assay, conditions: 308.15 K; 101 kPa; Liquid; Standard Abbe refractometry; w1 = 0.2
row,Structure (SMILES),refractive index
1,CC(O)CN (stereo unspecified) [1-amino-2-propanol] + O,1.35767 ± 0.00033
2,CC(O)CNCC(C)O (stereo unspecified) [N-(2-hydroxypropyl)-2-hydroxy-1-propanamine] + O,1.36036 ± 0.00033
3,OCCNCCO [diethanolamine] + O,1.36028 ± 0.00031

# Same assay, conditions: 308.15 K; 101 kPa; Liquid; Standard Abbe refractometry; w1 = 0.25
row,Structure (SMILES),refractive index
1,CC(O)CN (stereo unspecified) [1-amino-2-propanol] + O,1.36461 ± 0.00033
2,CC(O)CNCC(C)O (stereo unspecified) [N-(2-hydroxypropyl)-2-hydroxy-1-propanamine] + O,1.36736 ± 0.00033
3,OCCNCCO [diethanolamine] + O,1.36847 ± 0.00031

# Same assay, conditions: 313.15 K; 101 kPa; Liquid; Standard Abbe refractometry; w1 = 0.05
row,Structure (SMILES),refractive index
1,CC(O)CN (stereo unspecified) [1-amino-2-propanol] + O,1.33668 ± 0.00031
2,CC(O)CNCC(C)O (stereo unspecified) [N-(2-hydroxypropyl)-2-hydroxy-1-propanamine] + O,1.33844 ± 0.00031
3,OCCNCCO [diethanolamine] + O,1.3372 ± 0.00031

# Same assay, conditions: 313.15 K; 101 kPa; Liquid; Standard Abbe refractometry; w1 = 0.1
row,Structure (SMILES),refractive index
1,CC(O)CN (stereo unspecified) [1-amino-2-propanol] + O,1.34343 ± 0.00032
2,CC(O)CNCC(C)O (stereo unspecified) [N-(2-hydroxypropyl)-2-hydroxy-1-propanamine] + O,1.34533 ± 0.00032
3,OCCNCCO [diethanolamine] + O,1.34427 ± 0.00031

# Same assay, conditions: 313.15 K; 101 kPa; Liquid; Standard Abbe refractometry; w1 = 0.15
row,Structure (SMILES),refractive index
1,CC(O)CN (stereo unspecified) [1-amino-2-propanol] + O,1.35012 ± 0.00032
2,CC(O)CNCC(C)O (stereo unspecified) [N-(2-hydroxypropyl)-2-hydroxy-1-propanamine] + O,1.35237 ± 0.00032
3,OCCNCCO [diethanolamine] + O,1.35208 ± 0.00031

# Same assay, conditions: 313.15 K; 101 kPa; Liquid; Standard Abbe refractometry; w1 = 0.2
row,Structure (SMILES),refractive index
1,CC(O)CN (stereo unspecified) [1-amino-2-propanol] + O,1.35672 ± 0.00033
2,CC(O)CNCC(C)O (stereo unspecified) [N-(2-hydroxypropyl)-2-hydroxy-1-propanamine] + O,1.35947 ± 0.00033
3,OCCNCCO [diethanolamine] + O,1.35939 ± 0.00031

# Same assay, conditions: 313.15 K; 101 kPa; Liquid; Standard Abbe refractometry; w1 = 0.25
row,Structure (SMILES),refractive index
1,CC(O)CN (stereo unspecified) [1-amino-2-propanol] + O,1.36347 ± 0.00033
2,CC(O)CNCC(C)O (stereo unspecified) [N-(2-hydroxypropyl)-2-hydroxy-1-propanamine] + O,1.36641 ± 0.00033
3,OCCNCCO [diethanolamine] + O,1.36756 ± 0.00031

# Same assay, conditions: 318.15 K; 101 kPa; Liquid; Standard Abbe refractometry; w1 = 0.05
row,Structure (SMILES),refractive index
1,CC(O)CN (stereo unspecified) [1-amino-2-propanol] + O,1.33578 ± 0.00031
2,CC(O)CNCC(C)O (stereo unspecified) [N-(2-hydroxypropyl)-2-hydroxy-1-propanamine] + O,1.33755 ± 0.00031
3,OCCNCCO [diethanolamine] + O,1.33633 ± 0.00031

# Same assay, conditions: 318.15 K; 101 kPa; Liquid; Standard Abbe refractometry; w1 = 0.1
row,Structure (SMILES),refractive index
1,CC(O)CN (stereo unspecified) [1-amino-2-propanol] + O,1.34259 ± 0.00032
2,CC(O)CNCC(C)O (stereo unspecified) [N-(2-hydroxypropyl)-2-hydroxy-1-propanamine] + O,1.3445 ± 0.00032
3,OCCNCCO [diethanolamine] + O,1.3434 ± 0.00031

# Same assay, conditions: 318.15 K; 101 kPa; Liquid; Standard Abbe refractometry; w1 = 0.15
row,Structure (SMILES),refractive index
1,CC(O)CN (stereo unspecified) [1-amino-2-propanol] + O,1.34908 ± 0.00032
2,CC(O)CNCC(C)O (stereo unspecified) [N-(2-hydroxypropyl)-2-hydroxy-1-propanamine] + O,1.35149 ± 0.00032
3,OCCNCCO [diethanolamine] + O,1.35122 ± 0.00031

# Same assay, conditions: 318.15 K; 101 kPa; Liquid; Standard Abbe refractometry; w1 = 0.2
row,Structure (SMILES),refractive index
1,CC(O)CN (stereo unspecified) [1-amino-2-propanol] + O,1.35573 ± 0.00033
2,CC(O)CNCC(C)O (stereo unspecified) [N-(2-hydroxypropyl)-2-hydroxy-1-propanamine] + O,1.35838 ± 0.00033
3,OCCNCCO [diethanolamine] + O,1.35862 ± 0.00031

# Same assay, conditions: 318.15 K; 101 kPa; Liquid; Standard Abbe refractometry; w1 = 0.25
row,Structure (SMILES),refractive index
1,CC(O)CN (stereo unspecified) [1-amino-2-propanol] + O,1.36228 ± 0.00033
2,CC(O)CNCC(C)O (stereo unspecified) [N-(2-hydroxypropyl)-2-hydroxy-1-propanamine] + O,1.36537 ± 0.00033
3,OCCNCCO [diethanolamine] + O,1.36659 ± 0.00031

# Same assay, conditions: 323.15 K; 101 kPa; Liquid; Standard Abbe refractometry; w1 = 0.05
row,Structure (SMILES),refractive index
1,CC(O)CN (stereo unspecified) [1-amino-2-propanol] + O,1.33483 ± 0.00031
2,CC(O)CNCC(C)O (stereo unspecified) [N-(2-hydroxypropyl)-2-hydroxy-1-propanamine] + O,1.33675 ± 0.00031
3,OCCNCCO [diethanolamine] + O,1.33539 ± 0.00031

# Same assay, conditions: 323.15 K; 101 kPa; Liquid; Standard Abbe refractometry; w1 = 0.1
row,Structure (SMILES),refractive index
1,CC(O)CN (stereo unspecified) [1-amino-2-propanol] + O,1.34154 ± 0.00032
2,CC(O)CNCC(C)O (stereo unspecified) [N-(2-hydroxypropyl)-2-hydroxy-1-propanamine] + O,1.34355 ± 0.00032
3,OCCNCCO [diethanolamine] + O,1.34245 ± 0.00031

# Same assay, conditions: 323.15 K; 101 kPa; Liquid; Standard Abbe refractometry; w1 = 0.15
row,Structure (SMILES),refractive index
1,CC(O)CN (stereo unspecified) [1-amino-2-propanol] + O,1.34799 ± 0.00032
2,CC(O)CNCC(C)O (stereo unspecified) [N-(2-hydroxypropyl)-2-hydroxy-1-propanamine] + O,1.35044 ± 0.00032
3,OCCNCCO [diethanolamine] + O,1.35028 ± 0.00031

# Same assay, conditions: 323.15 K; 101 kPa; Liquid; Standard Abbe refractometry; w1 = 0.2
row,Structure (SMILES),refractive index
1,CC(O)CN (stereo unspecified) [1-amino-2-propanol] + O,1.35454 ± 0.00033
2,CC(O)CNCC(C)O (stereo unspecified) [N-(2-hydroxypropyl)-2-hydroxy-1-propanamine] + O,1.35739 ± 0.00033
3,OCCNCCO [diethanolamine] + O,1.35777 ± 0.00031

# Same assay, conditions: 323.15 K; 101 kPa; Liquid; Standard Abbe refractometry; w1 = 0.25
row,Structure (SMILES),refractive index
1,CC(O)CN (stereo unspecified) [1-amino-2-propanol] + O,1.36109 ± 0.00033
2,CC(O)CNCC(C)O (stereo unspecified) [N-(2-hydroxypropyl)-2-hydroxy-1-propanamine] + O,1.36423 ± 0.00033
3,OCCNCCO [diethanolamine] + O,1.36557 ± 0.00031

# Same assay, conditions: 328.15 K; 101 kPa; Liquid; Standard Abbe refractometry; w1 = 0.05
row,Structure (SMILES),refractive index
1,CC(O)CN (stereo unspecified) [1-amino-2-propanol] + O,1.33384 ± 0.00031
2,CC(O)CNCC(C)O (stereo unspecified) [N-(2-hydroxypropyl)-2-hydroxy-1-propanamine] + O,1.33566 ± 0.00031
3,OCCNCCO [diethanolamine] + O,1.33442 ± 0.00031
